Reference: US10626126B2, “Compounds” (Pulmocide Limited, priority 2016, dated 2020)
Entries after “also recorded” stand apart in the source; their conditions may differ.

Assays:
RSV A2 strain = assay: RSV A2 induced CPE in HEp2 cells; format: cell-based; settings: human respiratory syncytial virus; for IC50: HEp-2, 120 h, 5 days; for inhibition at 0.01 µg/mL: HEp-2, at 0.01 μg/mL
Description: (§1) HEp2 cells were seeded (10^3/well/50 μL) in 384-well plates (Catalogue number 353962, BD Falcon, Oxford, UK) in 5% FBS-DMEM (containing 2 mM L-glutamine and 1 mM sodium pyruvate) one day before infection. […] Simultaneously, test compounds (0.5 μL DMSO solution) were added to 100 μL of HEp2 cell culture with virus solution to provide a final DMSO solution of 0.5%. […] Sigma-Aldrich, Dorset, UK) was added to each well and the plate incubated for a further 6 hr (37° C./5% CO2). The fluorescence of each well [545 nm (excitation)/590 nm (emission)] was determined using a multi-scanner (Clariostar: BMG, Buckinghamshire, UK). The percentage inhibition for each well was calculated and the IC50, IC75 and IC90 values were calculated from the concentration-response curve generated for each test compound.

RSV B Washington strain = assay: RSV B induced CPE in HEp2 cells; format: cell-based; settings: human respiratory syncytial virus; for IC50: HEp-2, 144 h, 6 days; for inhibition at 0.1 µg/mL: HEp-2, at 0.1 μg/mL; for inhibition at 1 µg/mL: HEp-2, at 1 μg/mL
Description: as §1

[1] = Cell viability: resazurin assay; format: cell-based; settings: human, HEp2 cells
Description: HEp2 cells were seeded in 384-well plates (10^3/well/50 μL; BD Falcon Ref 353962) in FBS DMEM (5%, containing 2 mM L-glutamine and 1 mM sodium pyruvate) one day before experimentation. Serum-free DMEM (50 μL) was added to test wells, while for control wells the media was removed and sterile water (100 μL) added. Test compounds (0.5 μL DMSO solution) were added to give a final DMSO concentration of 0.5%. HEp2 cells were incubated with each test compound for 5 days (37° C./5% CO2 in 2.5% FBS) and then resazurin stock solution (5 μL; 0.03%) was added to each well and the plate incubated for a further 6 hr (37° C./5% CO2). The fluorescence of each well at 545 nm (excitation) and 590 nm (emission) was determined using a multi-scanner (Clariostar: BMG Labtech). The percentage loss of cell viability was calculated for each well relative to vehicle (0.5% DMSO) treatment. Note that any apparent increase in cell viability associated with test compound treatment relative to vehicle is consequently tabulated as a negative percentage. Where appropriate, a CC50 value was calculated from the concentration-response curve generated from the concentration-response curve for each test compound.

RSV A2 [2] = assay: RSV F protein expression in BEAS2B bronchial epithelial cells; format: cell-based; settings: human respiratory syncytial virus, BEAS-2B, n=2
Description: An early event which follows the infection of epithelial cells by RSV is the expression of RSV F-protein on the cells' surface. BEAS2B cells were grown in 96 well plates. […] Supernatant was aspirated and the cells were fixed with 4% formaldehyde (100 μL in PBS solution) for 20 min, washed 3 times with washing buffer (200 μL; PBS containing 0.05% Tween-20) and incubated with blocking solution (100 μL; 5% BSA in washing buffer) for 1 hr. […] No. ab43812, Abcam plc, Cambridge, UK) F-fusion protein antibody (50 μL; prepared at a 1:2000 dilution in 5% BSA/washing buffer). After washing, cells were incubated with an HRP-conjugated anti-mouse IgG antibody (50 μL prepared at a 1:2000 dilution in 5% BSA in PBS; lot 00095437, Cat. No. P0447, Dako UK Ltd, Cambridgeshire, UK) for 1 hr. […] The resultant signal was determined colourimetrically (OD: 450 nm with a reference wavelength of 655 nm) in a microplate reader (Multiskan FC®, ThermoFisher Scientific). […] After washing with PBS (200 μL) 2 times, 1% SDS (100 μL) was added to each well, and plates were shaken lightly for 1 hr prior to reading the absorbance at 595 nm. The measured OD450-655 readings were corrected for cell number by dividing the OD450-655 by the OD595 readings. The percentage inhibition for each well was calculated and the IC50 value derived from the concentration-response curve generated for each test compound.

RSV NS-1 gene = assay: RSV infection in cotton rats: RSV NS-1 gene expression in lung (qRT-PCR); format: in vivo, Sigmodon hispidus cotton rats; settings: intranasal
hRSV/A/Long = assay: RSV infection in cotton rats: viral titre in lung (plaque assay); settings: for Virus titre in lung, Geometric Mean / Virus titre in lung, Median: day 4 post infection
Description: (§2) Male Sigmodon hispidus cotton rats between 6 and 8 weeks of age were infected with hRSV/A/Long (ATCC, Manassas, Va.; 10^5 pfu) in a volume of 0.1 mL of sucrose stabilizing media. Test compounds were dissolved in 100% DMSO (at 3.3, 10, 33 and 100 mg/mL), then diluted (1:10 in isotonic saline to achieve 10% DMSO in all treatments) and sonicated to produce suspensions which were administered intranasally (50 μL) by pipette 4 hr before infection (on day 0), and then on days 1, 2 and 3 post infection. Four days after RSV challenge, the animals were euthanised and the lungs removed.
The supernatants of lung homogenates were diluted 1:10 and 1:100 in Eagle (E)-MEM. Confluent HEp2 monolayers in 24-well plates were infected in duplicate (50 μL of sample per well) starting with undiluted (neat) samples followed by diluted homogenates. After incubation for 1 hr (37° C./5% CO2) wells were overlaid with 0.75% methylcellulose medium and plates replaced in the 37° C. incubator. After incubation (for 4 days), the overlay was removed, the cells fixed with 0.1% crystal violet stain (for 1 hr) and then rinsed and air-dried. Plaques were counted and viral titers were expressed as plaque forming units per gram (pfu.g^−1) of tissue.

RANTES gene = assay: RSV infection in cotton rats: RANTES gene expression in lung (qRT-PCR); settings: intranasal
Description: as §2
Total RNA was also extracted from homogenized lung tissue (RNeasy purification kit; Qiagen) and a sample (1 μg) used to prepare cDNA using QuantiTect Reverse Transcription Kit (Qiagen). For real-time PCR reactions (RSV NS-1 and RANTES genes) the QuantiFast SYBR® Green PCR Kit (Qiagen) was used in a final volume of 25 μL, with final primer concentrations of 0.5 μM. Amplifications were performed on a Bio-Rad iCycler for 1 cycle of 950C for 3 min, followed by 40 cycles of 950C for 10 sec, 600C for 10 sec, and 720C for 15 sec. Baseline cycles and cycle threshold (Ct) were calculated by the iQ5 software in the PCR Base Line Subtracted Curve Fit mode.
The standard curves were developed using the serially diluted cDNA sample most enriched in the transcript of interest (e.g., lungs from day 4 post-primary RSV infection). The Ct values were plotted against log10 cDNA dilution factor and the curves were used to convert the Ct values obtained for different samples to relative expression units, which were then normalized against the level of R-actin mRNA (“housekeeping gene”) expressed in the corresponding sample. The mRNA levels were expressed as the geometric mean±SEM for all animals in a group.

RSV A2 [3] = assay: Virus titre in air-liquid interface (ALI) cultured bronchial epithelial cells; settings: for Virus titre in apical wash, geometric mean: late intervention (days 3-7), 0.1 mg/mL; for inhibition of virus titre in ALI culture (in words): late stage intervention
Description: ALI cultured human bronchial epithelial cells were sourced from Epithelix Sarl (Geneva, Switzerland) and maintained by changing the basal media every 3-4 days, whilst the apical surface was washed once weekly with PBS. On day 0, the apical surface of each well was washed once with sterile PBS (300 μL) and the inserts transferred to new 24-well plates containing fresh MucilAir culture medium (780 μL; EP04MM). RSV A2 (50 μL; diluted in MucilAir culture medium to give a final MOI of 0.01) was added to cells for one hr (37° C./5% CO2). For the purposes of standardizing MOI calculations, each MucilAir insert was estimated to contain 2×10^5 apical facing cells per well. Virus inoculum was removed with a pipette and inserts were washed twice with sterile PBS (300 μL).
Sampling was conducted by adding sterile PBS (300 μL) to the apical surface of each well for 5 min. The apical sample was then removed and transferred to tubes containing 50% sucrose dissolved in PBS (100 μL) before being stored at −80° C. This harvesting procedure was repeated daily beginning on day 0 and concluding on day 10.
The test compound (50 μL in 0.5% DMSO/PBS) was added to the apical surface and incubated (37° C./5% CO2) for 1 hr before being removed. Vehicle treatments (0.5% DMSO/PBS) were performed on the corresponding apical surfaces to ensure each well received the same number of manipulations. On day 5, the basal media was removed from each well and replenished with fresh MucilAir culture media as a necessary maintenance step for ALI culture cells.
Virus titre was quantified by plaque assay. HEp2 cells were grown in 24-well plates (Corning) for 48 hr prior to infection in DMEM containing 10% FBS until they attained 100% confluency.
Collected samples were thawed at RT and ten-fold serial dilutions were prepared in serum-free DMEM. The growth medium from HEp2 cells was aspirated and replaced with 300 μL of serially diluted virus collections and left to infect at 37° C./5% CO2 for 4 hr. The infectious media was aspirated and replaced with 1 mL Plaque Assay Overlay (0.3% Avicel RC-591 (FMC Biopolymer UK, Girvan, Scotland)) in MEM, supplemented to a final concentration of 2% FCS), and left for 7 days at 37° C./5% CO2. Cells were fixed with ice-cold methanol for 10 min, then removed and cells subjected to two washes with sterile PBS. Cells were then stained with crystal violet solution (200 μL 0.1%, in distilled water) for 1 hr. Crystal violet solution was removed and cells rinsed with water before plaques were counted and virus titre enumerated.

Compound: Cc1cnc(N2CC3(CCOCC3)C2)c(C(=O)Nc2ccc(C(=O)N3CCc4cc(C(=O)Nc5c(F)cccc5F)sc4-c4sccc43)cc2)c1 [Example 1, N-(2,6-Difluorophenyl)-4-(4-(5-methyl-2-(7-oxa-2-azaspiro[3.5]nonan-2-yl)nicotinamido)benzoyl)-5,6-dihydro-4H-dithieno[3,2-b:2′,3′-d]azepine-8-carboxamide]
- IC50 (RSV A2 strain): 0.11 nM
- inhibition at 0.01 µg/mL (RSV A2 strain): 100%
- IC50 (RSV B Washington strain): 9 nM
- inhibition at 0.1 µg/mL (RSV B Washington strain): 100%
- CC50 at 5 days [1]: > 13800 nM
- IC50 (RSV A2 [2]): 0.021 nM
- IC90 (RSV A2 [2]): 0.078 nM
- inhibition of RSV NS-1 gene transcripts (in words) (RSV NS-1 gene): dose-dependent inhibition
- RSV NS1 gene transcript % inhibition (RSV NS-1 gene; 0.33 mg/mL): −42%
- RSV NS1 gene transcript (/β-actin), Median (RSV NS-1 gene; 0.33 mg/mL): 4.4
- RSV NS1 gene transcript % inhibition (RSV NS-1 gene; 1.0 mg/mL): 39%
- RSV NS1 gene transcript (/β-actin), Median (RSV NS-1 gene; 1.0 mg/mL): 1.9
- RSV NS1 gene transcript % inhibition (RSV NS-1 gene; 3.3 mg/mL): 48%
- RSV NS1 gene transcript (/β-actin), Median (RSV NS-1 gene; 3.3 mg/mL): 1.6
- RSV NS1 gene transcript % inhibition (RSV NS-1 gene; 10 mg/mL): 68%
- RSV NS1 gene transcript (/β-actin), Median (RSV NS-1 gene; 10 mg/mL): 1.0
- Virus titre in lung, Geometric Mean (hRSV/A/Long; intranasal, 0.1 mg/mL): 5.4 log, PFU/lung
- Virus titre in lung, Median (hRSV/A/Long; intranasal, 0.1 mg/mL): 5.4 log, PFU/lung
- Virus titre in lung, Geometric Mean (hRSV/A/Long; intranasal, 0.33 mg/mL): 5.0 log, PFU/lung
- Virus titre in lung, Median (hRSV/A/Long; intranasal, 0.33 mg/mL): 5.0 log, PFU/lung
- Virus titre in lung, Geometric Mean (hRSV/A/Long; intranasal, 1.0 mg/mL): 4.3 log, PFU/lung
- Virus titre in lung, Median (hRSV/A/Long; intranasal, 1.0 mg/mL): 4.3 log, PFU/lung
- Virus titre in lung, Geometric Mean (hRSV/A/Long; intranasal, 3.3 mg/mL): <2.3^2 log, PFU/lung
- Virus titre in lung, Median (hRSV/A/Long; intranasal, 3.3 mg/mL): <2.3 log, PFU/lung
- inhibition of viral titre in lung homogenates (in words) (hRSV/A/Long; intranasal, RSV/A/Long infected cotton rats): potent dose-dependent inhibition of viral titre; also recorded: completely inhibited virus titre
- inhibition of RANTES transcripts in lung (in words) (RANTES gene): dose-dependent inhibition
- RANTES gene transcript % Inhibition (RANTES gene; 0.33 mg/mL): −8%
- RANTES gene transcript (/β-actin), Median (RANTES gene; 0.33 mg/mL): 3.9
- RANTES gene transcript % Inhibition (RANTES gene; 1.0 mg/mL): 36%
- RANTES gene transcript (/β-actin), Median (RANTES gene; 1.0 mg/mL): 2.3
- RANTES gene transcript % Inhibition (RANTES gene; 3.3 mg/mL): 36%
- RANTES gene transcript (/β-actin), Median (RANTES gene; 3.3 mg/mL): 2.3
- RANTES gene transcript % Inhibition (RANTES gene; 10 mg/mL): 61%
- RANTES gene transcript (/β-actin), Median (RANTES gene; 10 mg/mL): 1.4
- Virus titre in apical wash, geometric mean (RSV A2 [3]; day 0): 0 log PFU/mL
- Virus titre in apical wash, geometric mean (RSV A2 [3]; day 1): 2.14 log PFU/mL
- Virus titre in apical wash, geometric mean (RSV A2 [3]; day 2): 3.05 log PFU/mL
- Virus titre in apical wash, geometric mean (RSV A2 [3]; day 3): 5.18 log PFU/mL
- Virus titre in apical wash, geometric mean (RSV A2 [3]; day 4): 3.55 log PFU/mL
- Virus titre in apical wash, geometric mean (RSV A2 [3]; day 5): 3.68 log PFU/mL
- Virus titre in apical wash, geometric mean (RSV A2 [3]; day 6): 2.24 log PFU/mL
- Virus titre in apical wash, geometric mean (RSV A2 [3]; day 7): 1.71 log PFU/mL
- inhibition of virus titre in ALI culture (in words) (RSV A2 [3]): completely inhibited virus titre

Compound: Cc1cnc(N2CC3(CCOCC3)C2)c(C(=O)Nc2ccc(C(=O)N3CCc4cc(C(=O)Nc5c(F)cccc5Cl)sc4-c4sccc43)cc2)c1 [Example 12, N-(2-chloro-6-fluorophenyl)-4-(4-(5-methyl-2-(7-oxa-2-azaspiro[3.5]nonan-2-yl)nicotinamido)benzoyl)-5,6-dihydro-4H-dithieno[3,2-b:2′,3′-d]azepine-8-carboxamide]
- IC50 (RSV A2 strain): 0.14 nM
- inhibition at 0.01 µg/mL (RSV A2 strain): 84%
- IC50 (RSV B Washington strain): 3.1 nM
- inhibition at 1 µg/mL (RSV B Washington strain): 97%
- CC50 at 5 days [1]: > 13500 nM
- reduction of virus titre (hRSV/A/Long; intra-nasal dosing at 1 mg/ml): 0.7 log
- Virus titre in lung, Geometric Mean (hRSV/A/Long; intranasal, 1.0 mg/mL): 4.5 log, PFU/lung
- Virus titre in lung, Median (hRSV/A/Long; intranasal, 1.0 mg/mL): 4.5 log, PFU/lung
- Virus titre in apical wash, geometric mean (RSV A2 [3]; day 0): 0 log PFU/mL
- Virus titre in apical wash, geometric mean (RSV A2 [3]; day 1): 2.57 log PFU/mL
- Virus titre in apical wash, geometric mean (RSV A2 [3]; day 2): 4.86 log PFU/mL
- Virus titre in apical wash, geometric mean (RSV A2 [3]; day 3): 5.27 log PFU/mL
- Virus titre in apical wash, geometric mean (RSV A2 [3]; day 4): 4.71 log PFU/mL
- Virus titre in apical wash, geometric mean (RSV A2 [3]; day 5): 3.45 log PFU/mL
- Virus titre in apical wash, geometric mean (RSV A2 [3]; day 6): 2.62 log PFU/mL
- Virus titre in apical wash, geometric mean (RSV A2 [3]; day 7): 1.22 log PFU/mL
- inhibition of virus titre in ALI culture (in words) (RSV A2 [3]): completely inhibited virus titre

Compound: O=C(Nc1c(F)cccc1F)c1cc2c(s1)-c1sccc1N(C(=O)c1ccc(NC(=O)c3cc4c(nc3N3CC5(CCOCC5)C3)CCC4)cc1)CC2 [Example 2, 4-(4-(2-(7-Oxa-2-azaspiro[3.5]nonan-2-yl)-6,7-dihydro-5H-cyclopenta[b]pyridine-3-carboxamido)benzoyl)-N-(2,6-difluorophenyl)-5,6-dihydro-4H-dithieno[3,2-b: 2′,3′-d]azepine-8-carboxamide]
- IC50 (RSV A2 strain): 0.37 nM
- inhibition at 0.01 µg/mL (RSV A2 strain): 97%
- IC50 (RSV B Washington strain): 8.7 nM
- inhibition at 0.1 µg/mL (RSV B Washington strain): 86%
- CC50 at 5 days [1]: > 13300 nM

Compound: Cc1cnc(N2CC3(CCOCC3)C2)c(C(=O)Nc2ccc(C(=O)N3CCc4cc(C(=O)Nc5c(C)cccc5F)sc4-c4sccc43)cc2)c1 [Example 11, N-(2-fluoro-6-methylphenyl)-4-(4-(5-methyl-2-(7-oxa-2-azaspiro[3.5]nonan-2-yl)nicotinamido)benzoyl)-5,6-dihydro-4H-dithieno[3,2-b:2′,3′-d]azepine-8-carboxamide]
- IC50 (RSV A2 strain): 0.21 nM
- inhibition at 0.01 µg/mL (RSV A2 strain): 100%
- IC50 (RSV B Washington strain): 8.3 nM
- inhibition at 0.1 µg/mL (RSV B Washington strain): 100%
- CC50 at 5 days [1]: > 13900 nM

Compound: Cc1cc(C(=O)Nc2ccc(C(=O)N3CCc4cc(C(=O)Nc5c(F)cccc5F)sc4-c4sccc43)c(F)c2)c(N2CC3(CCOCC3)C2)nc1C [Example 23, N-(2,6-difluorophenyl)-4-(4-(5,6-dimethyl-2-(7-oxa-2-azaspiro[3.5]nonan-2-yl)nicotinamido)-2-fluorobenzoyl)-5,6-dihydro-4H-dithieno[3,2-b:2′,3′-d]azepine-8-carboxamide]
- IC50 (RSV A2 strain): 0.67 nM
- inhibition at 0.01 µg/mL (RSV A2 strain): 96%
- IC50 (RSV B Washington strain): 70 nM
- inhibition at 1 µg/mL (RSV B Washington strain): 96%
- CC50 at 5 days [1]: > 13200 nM
